Test results published in ChEMBL document CHEMBL5518244, “Design, Synthesis, and Biological Evaluation of a Novel NIK Inhibitor with Anti-Inflammatory and Hepatoprotective Effects for Sepsis Treatment” (J Med Chem, 2024).

Target: Mitogen-activated protein kinase kinase kinase 14 (Homo sapiens, UniProt Q99558)
Experiment: Inhibition of NIK (unknown origin) incubated 30 to 60 mins by ADP-Glo Kinase

Sequence of Mitogen-activated protein kinase kinase kinase 14 (Q99558 whole entry): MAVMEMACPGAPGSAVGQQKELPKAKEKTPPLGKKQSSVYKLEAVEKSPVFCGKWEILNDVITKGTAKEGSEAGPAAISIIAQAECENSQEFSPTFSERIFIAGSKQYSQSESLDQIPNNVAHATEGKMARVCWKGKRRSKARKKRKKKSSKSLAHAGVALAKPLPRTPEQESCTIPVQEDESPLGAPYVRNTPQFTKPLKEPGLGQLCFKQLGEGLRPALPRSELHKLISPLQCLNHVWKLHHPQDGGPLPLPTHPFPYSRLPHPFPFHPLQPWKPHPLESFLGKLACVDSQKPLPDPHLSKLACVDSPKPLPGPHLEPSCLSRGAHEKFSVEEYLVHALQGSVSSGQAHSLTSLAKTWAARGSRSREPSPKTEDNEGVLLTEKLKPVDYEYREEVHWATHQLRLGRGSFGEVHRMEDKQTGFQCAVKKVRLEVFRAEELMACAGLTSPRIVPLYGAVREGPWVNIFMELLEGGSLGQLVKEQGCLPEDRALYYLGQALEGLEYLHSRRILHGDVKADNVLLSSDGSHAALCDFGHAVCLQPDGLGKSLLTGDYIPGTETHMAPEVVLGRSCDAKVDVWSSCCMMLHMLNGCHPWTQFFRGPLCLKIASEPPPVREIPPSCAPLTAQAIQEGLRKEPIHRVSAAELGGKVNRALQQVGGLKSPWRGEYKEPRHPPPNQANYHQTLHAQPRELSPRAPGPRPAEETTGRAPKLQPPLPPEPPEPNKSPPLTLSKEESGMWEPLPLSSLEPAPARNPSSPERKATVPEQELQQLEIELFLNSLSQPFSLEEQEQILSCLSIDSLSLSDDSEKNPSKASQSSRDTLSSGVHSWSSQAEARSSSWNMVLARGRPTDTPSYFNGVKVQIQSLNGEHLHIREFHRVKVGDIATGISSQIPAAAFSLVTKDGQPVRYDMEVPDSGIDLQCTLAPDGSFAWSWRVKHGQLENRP

| Compound | IC50 |
| --- | --- |
| COCCNc1nccc(N2CCCn3nc(C#CC(C)(O)c4nccs4)cc32)n1 (stereo not drawn) | 34.2 nM |
| OC1(C#Cc2cc3n(n2)CCCN3c2ccnc(Nc3ccc4c(c3)OCO4)n2)CCCC1 | 14.1 nM |
| CC(O)(C#Cc1cc2n(n1)CCCN2c1ncnc(Nc2ccc(Cl)cc2)n1)c1nccs1 (stereo not drawn) | 4.73 nM |
| CC(O)(C#Cc1cc2n(n1)CCCN2c1ccnc(Nc2cc(Cl)ccn2)n1)c1nccs1 (stereo not drawn) | 6.99 nM |
| CC(O)(C#Cc1cc2n(n1)CCCN2c1ncnc2[nH]ccc12)c1nccs1 (stereo not drawn) | > 500 nM |
| COCCN(C)c1cccc(Nc2nccc(N3CCCn4nc(C#CC(C)(O)c5nccs5)cc43)n2)n1 (stereo not drawn) | 14.8 nM |
| CC(O)(C#Cc1cc2n(n1)CCCN2c1ccnc(Nc2ccc3c(c2)OC(F)(F)O3)n1)c1nccs1 (stereo not drawn) | 15.4 nM |
| OC1(C#Cc2cc3n(n2)CCCN3c2ccnc(Nc3ccc4c(c3)OCO4)n2)COC1 | > 500 nM |
| CC(C)Oc1cccc(Nc2nccc(N3CCCn4nc(C#CC(C)(O)c5nccs5)cc43)n2)n1 (stereo not drawn) | 16.5 nM |
| Cn1cc(Nc2nccc(N3CCCn4nc(C#CC(C)(O)c5nccs5)cc43)n2)cn1 (stereo not drawn) | 5.35 nM |
| COc1cccnc1Nc1nccc(N2CCCn3nc(C#CC(C)(O)c4nccs4)cc32)n1 (stereo not drawn) | 433 nM |
| COc1ccnc(Nc2nccc(N3CCCn4nc(C#CC(C)(O)c5nccs5)cc43)n2)c1 (stereo not drawn) | 5.1 nM |
| CC(C)Nc1nccc(N2CCCn3nc(C#CC(C)(O)c4nccs4)cc32)n1 (stereo not drawn) | 14.3 nM |
| CC(O)(C#Cc1cc2n(n1)CCCN2c1cc(Nc2ccc(F)cc2)ncn1)c1nccs1 (stereo not drawn) | 58.4 nM |
| Cc1cc(C(C)(O)C#Cc2cc3n(n2)CCCN3c2ccnc(Nc3ccc4c(c3)OCO4)n2)no1 (stereo not drawn) | 3.78 nM |
| CC(O)(C#Cc1cc2n(n1)CCCN2c1ccnc(Nc2cc(C#N)ccn2)n1)c1nccs1 (stereo not drawn) | 6.96 nM |
| C(#Cc1cc2n(n1)CCCN2c1ccnc(Nc2ccc3c(c2)OCO3)n1)c1ccccn1 | > 500 nM |
| Cn1ccc(Nc2nccc(N3CCCn4nc(C#CC(C)(O)c5nccs5)cc43)n2)n1 (stereo not drawn) | 9.36 nM |
| CC(O)(C#Cc1cc2n(n1)CCCN2c1ccnc(Nc2cccc(N3CCCCC3)n2)n1)c1nccs1 (stereo not drawn) | 24.6 nM |

| Compound | IC50 |
| --- | --- |
| CC(O)(C#Cc1cc2n(n1)CCCN2c1ccnc(Nc2ccc3ccccc3n2)n1)c1nccs1 (stereo not drawn) | 22.1 nM |
| COc1cc(Nc2nccc(N3CCCn4nc(C#CC(C)(O)c5nccs5)cc43)n2)cc(OC)c1 (stereo not drawn) | 6.74 nM |
| CC(O)(C#Cc1cc2n(n1)CCCN2c1ccnc(Nc2cccc(N3CCOCC3)c2)n1)c1nccs1 (stereo not drawn) | 11.5 nM |
| CN(C)c1ccnc(Nc2nccc(N3CCCn4nc(C#CC(C)(O)c5nccs5)cc43)n2)c1 (stereo not drawn) | 208 nM |
| CC(O)(C#Cc1cc2n(n1)CCCN2c1ccnc(N)n1)c1nccs1 (stereo not drawn) | 4.6 nM |
| CC(O)(C#Cc1cc2n(n1)CCCN2c1ccnc(Nc2ccncn2)n1)c1nccs1 (stereo not drawn) | 11.3 nM |
| COc1cc(Nc2nccc(N3CCCn4nc(C#CC(C)(O)c5nccs5)cc43)n2)nc(OC)c1 (stereo not drawn) | 10.7 nM |
| C(#CC1CC1)c1cc2n(n1)CCCN2c1ccnc(Nc2ccc3c(c2)OCO3)n1 | > 500 nM |
| CC(O)(C#Cc1cc2n(n1)CCCN2c1ccnc(NC2CCCCC2)n1)c1nccs1 (stereo not drawn) | 131 nM |
| CNc1nccc(N2CCCn3nc(C#CC(C)(O)c4nccs4)cc32)n1 (stereo not drawn) | 11.2 nM |
| CC(O)(C#Cc1cc2n(n1)CCCN2c1nc(N)ncc1F)c1nccs1 (stereo not drawn) | > 500 nM |
| CC(C)n1cc(Nc2nccc(N3CCCn4nc(C#CC(C)(O)c5nccs5)cc43)n2)cn1 (stereo not drawn) | 9.17 nM |
| CC(O)(C#Cc1cc2n(n1)CCCN2c1ccnc(Nc2ccc(F)cn2)n1)c1nccs1 (stereo not drawn) | 8.34 nM |
| OC1(C#Cc2cc3n(n2)CCCN3c2ccnc(Nc3ccc4c(c3)OCO4)n2)CCn2ccnc21 (stereo not drawn) | 4.33 nM |
| CC(O)(C#Cc1cc2n(n1)CCCN2c1ccnc(Nc2cc(N3CCOCC3)ccn2)n1)c1nccs1 (stereo not drawn) | 341 nM |
| COc1ccc(Nc2nccc(N3CCCn4nc(C#CC(C)(O)c5nccs5)cc43)n2)nc1 (stereo not drawn) | 7.44 nM |
| CC(O)(C#Cc1cc2n(n1)CCCN2c1ccnc(Nc2ccccn2)n1)c1nccs1 (stereo not drawn) | 5.93 nM |
| COc1cc(Nc2nccc(N3CCCn4nc(C#C[C@](C)(O)c5nccs5)cc43)n2)cc(OC)c1 | 89.4 nM |
| CC(O)(C#Cc1cc2n(n1)CCCN2c1ccnc(Nc2ccccc2)c1)c1nccs1 (stereo not drawn) | 11.3 nM |
